This test concerns wild-type HIV-1. The experiment in a line: Cell Spread Assay (described in US 5,646,148). The test is classed as cell-based. Conditions: against wild-type HIV-1.

Our source for the CIC95 values is patent EP1044000B1, “COMBINATION THERAPY FOR THE TREATMENT OF AIDS” (MERCK & CO., INC., priority 1997, dated 1999).

As to `CC(C)(C)NC(=O)[C@@H]1CN(Cc2cccnc2)CCN1C[C@@H](O)C[C@@H](Cc1ccccc1)C(=O)N[C@H]1c2ccccc2C[C@H]1O` [Indinavir, N-(2(R)-hydroxy-1(S)-indanyl)-2(R)-phenylmethyl-4-(S)-hydroxy-5-(1-(4-(3-pyridylmethyl)-2(S)-N'-(t-butylcarboxamido)-piperazinyl))-pentaneamide], the CIC95 was 50 nM.
